In ChEMBL document CHEMBL4002586, “Aurone Mannich base derivatives as promising multifunctional agents with acetylcholinesterase inhibition, anti-β-amyloid aggragation and neuroprotective properties for the treatment of Alzheimer's disease” (Eur J Med Chem, 2017):
pIC50: −log10 of the molar value. Calls of active or inactive are those of the source. The calls are words filed in the database; no cut-off is given here.

Columns and labels:
[1] = Inhibition of Cu2+-mediated aggregation of human amyloid beta (1 to 42 residues) at 25 uM after 24 hrs by thioflavin T-based fluorometric assay relative to control; type: functional
Acetylcholinesterase [2] = target: T1, Acetylcholinesterase (Rattus norvegicus, UniProt P37136); assay: Inhibition of AChE in rat brain cortex homogenates using acetylthiocholine iodide as substrate in presence of BuChE inhibitor tetraisopropyl pyrophosphoramide measured after 15 mins by Ellman's method
T1 sequence (P37136 whole entry): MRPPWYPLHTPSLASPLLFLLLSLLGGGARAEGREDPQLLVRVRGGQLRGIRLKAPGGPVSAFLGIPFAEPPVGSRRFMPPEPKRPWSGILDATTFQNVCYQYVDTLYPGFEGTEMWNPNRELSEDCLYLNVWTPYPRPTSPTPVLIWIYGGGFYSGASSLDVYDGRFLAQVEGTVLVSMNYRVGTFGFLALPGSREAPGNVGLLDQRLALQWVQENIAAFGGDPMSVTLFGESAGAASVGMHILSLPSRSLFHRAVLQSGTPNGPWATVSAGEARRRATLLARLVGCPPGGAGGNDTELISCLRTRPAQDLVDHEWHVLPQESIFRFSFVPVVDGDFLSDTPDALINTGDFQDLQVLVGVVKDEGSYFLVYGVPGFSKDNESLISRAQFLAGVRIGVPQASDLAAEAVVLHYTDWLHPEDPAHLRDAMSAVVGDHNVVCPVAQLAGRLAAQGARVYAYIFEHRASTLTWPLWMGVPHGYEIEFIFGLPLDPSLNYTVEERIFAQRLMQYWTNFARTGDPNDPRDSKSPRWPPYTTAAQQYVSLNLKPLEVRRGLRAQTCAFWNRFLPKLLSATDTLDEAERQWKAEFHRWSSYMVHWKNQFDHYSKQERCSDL

Acetylcholinesterase [3] = target: Acetylcholinesterase (Electrophorus electricus, UniProt O42275); assay: Inhibition of Electrophorus electricus AChE using acetylthiocholine iodide as substrate measured after 15 mins by Ellman's method
Acetylcholinesterase [4] = target: Acetylcholinesterase (Homo sapiens, UniProt P22303); assay: Inhibition of human erythrocyte AChE using acetylthiocholine iodide as substrate measured after 15 mins by Ellman's method
[5] = target: butyrylcholinesterase (BuChE) (Rattus norvegicus, UniProt Q9JKC1); assay: Inhibition of BuChE in rat serum at 50 uM using butyrylthiocholine as substrate measured after 15 mins by Ellman's method relative to control; details: probe butyrylthiocholine
[6] = Antioxidant activity assessed as inhibition of AAPH-induced peroxyl radical generation at 5 uM measured as trolox equivalent preincubated for 15 mins followed by AAPH addition measured every 60 secs for 90 mins by ORAC-FL assay; type: functional
[7] = target: Amyloid-beta precursor protein (Homo sapiens) (UniProt P05067); assay: Inhibition of self-induced aggregation of HFIP-treated human amyloid beta (1 to 42 residues) at 25 uM after 24 hrs by thioflavin T-based fluorometric assay relative to control
[8] = target: T2, Amine oxidase [flavin-containing] A (Homo sapiens, UniProt P21397); assay: Inhibition of recombinant human MAO-A expressed in baculovirus infected BTI insect cells at 10 uM using kynuramine as substrate incubated for 30 mins by fluorescence assay relative to control; details: 0.5 h
T2 sequence (P21397 whole entry): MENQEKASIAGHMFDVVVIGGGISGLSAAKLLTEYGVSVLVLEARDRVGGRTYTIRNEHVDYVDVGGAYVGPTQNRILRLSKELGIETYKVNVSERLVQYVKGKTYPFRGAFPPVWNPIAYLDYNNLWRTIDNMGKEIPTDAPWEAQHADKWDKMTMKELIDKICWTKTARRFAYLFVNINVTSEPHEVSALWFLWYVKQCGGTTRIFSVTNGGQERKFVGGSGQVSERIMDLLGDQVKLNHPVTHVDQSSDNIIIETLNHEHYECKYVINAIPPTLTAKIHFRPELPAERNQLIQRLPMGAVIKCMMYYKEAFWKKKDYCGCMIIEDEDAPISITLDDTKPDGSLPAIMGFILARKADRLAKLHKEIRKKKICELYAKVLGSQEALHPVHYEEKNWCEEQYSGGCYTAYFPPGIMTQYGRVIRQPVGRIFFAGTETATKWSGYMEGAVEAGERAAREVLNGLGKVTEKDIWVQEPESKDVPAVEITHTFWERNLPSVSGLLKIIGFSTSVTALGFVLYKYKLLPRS

[9] = target: T3, Amine oxidase [flavin-containing] B (Homo sapiens, UniProt P27338); assay: Inhibition of recombinant human MAO-B expressed in baculovirus infected BTI insect cells at 10 uM using kynuramine as substrate incubated for 30 mins by fluorescence assay relative to control; details: 0.5 h
T3 sequence (P27338 whole entry): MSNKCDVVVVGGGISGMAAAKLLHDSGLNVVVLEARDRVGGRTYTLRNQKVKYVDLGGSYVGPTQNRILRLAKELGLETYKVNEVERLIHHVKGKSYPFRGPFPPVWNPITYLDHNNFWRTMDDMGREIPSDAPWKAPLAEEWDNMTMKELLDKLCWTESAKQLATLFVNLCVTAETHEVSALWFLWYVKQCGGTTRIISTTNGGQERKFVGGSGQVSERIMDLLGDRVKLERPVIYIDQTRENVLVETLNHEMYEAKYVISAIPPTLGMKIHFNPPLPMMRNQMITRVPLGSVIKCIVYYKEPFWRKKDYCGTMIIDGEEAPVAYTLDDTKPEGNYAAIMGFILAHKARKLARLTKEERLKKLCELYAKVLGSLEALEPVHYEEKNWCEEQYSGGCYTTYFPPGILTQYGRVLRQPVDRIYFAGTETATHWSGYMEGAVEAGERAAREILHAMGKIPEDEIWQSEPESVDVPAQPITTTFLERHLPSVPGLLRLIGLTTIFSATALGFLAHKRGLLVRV

PC-12 [10] = assay: Neuroprotective activity against H2O2-induced damage in rat PC12 cells assessed as increase in cell viability at 100 uM pretreated for 2 hrs followed by H2O2 challenge measured after 24 hrs by MTT assay; type: functional, cell-based
PC-12 [11] = assay: Neuroprotective activity against H2O2-induced damage in rat PC12 cells assessed as reduction in LDH release at 100 uM pretreated for 2 hrs followed by H2O2 challenge measured after 24 hrs; type: functional, cell-based
[12] = Metal chelating activity assessed as compound-Zn2+ complex formation at 37.5 uM in presence of ZnCl2 after 30 mins by UV-visible spectrophotometric analysis; type: functional
[13] = Metal chelating activity assessed as compound-Cu2+ complex formation at 37.5 uM in presence of CuCl2 after 30 mins by UV-visible spectrophotometric analysis; type: functional
[14] = Metal chelating activity assessed as compound-Al3+ complex formation at 37.5 uM in presence of AlCl3 after 30 mins by UV-visible spectrophotometric analysis; type: functional
[15] = Metal chelating activity assessed as compound-Fe2+ complex formation at 37.5 uM in presence of FeSO4 after 30 mins by UV-visible spectrophotometric analysis; type: functional
[16] = Metal chelating activity assessed as mole fraction of compound required to show 1:1 stoichiometry for Cu2+-compound complex at 37.5 uM after 30 mins by UV-vis spectrophotometric method; type: functional
[17] = Permeability of compound at 100 ug/ml after 18 hrs by PAMPA; type: physicochemical; details: read-out: permeability
[18] = target: T4, Acetylcholinesterase (Rattus norvegicus) (UniProt P37136); assay: Inhibition of AChE in rat brain cortex homogenates at 50 uM using acetylthiocholine iodide as substrate in presence of BuChE inhibitor tetraisopropyl pyrophosphoramide measured after 15 mins by Ellman's method relative to control
T4 sequence (whole entry): T1 sequence (P37136 whole entry)

[19] = target: Acetylcholinesterase (Electrophorus electricus) (UniProt O42275); assay: Inhibition of Electrophorus electricus AChE at 50 uM using acetylthiocholine iodide as substrate measured after 15 mins by Ellman's method relative to control
Sequence of Acetylcholinesterase (Electrophorus electricus) (O42275 24-633 limits assumed): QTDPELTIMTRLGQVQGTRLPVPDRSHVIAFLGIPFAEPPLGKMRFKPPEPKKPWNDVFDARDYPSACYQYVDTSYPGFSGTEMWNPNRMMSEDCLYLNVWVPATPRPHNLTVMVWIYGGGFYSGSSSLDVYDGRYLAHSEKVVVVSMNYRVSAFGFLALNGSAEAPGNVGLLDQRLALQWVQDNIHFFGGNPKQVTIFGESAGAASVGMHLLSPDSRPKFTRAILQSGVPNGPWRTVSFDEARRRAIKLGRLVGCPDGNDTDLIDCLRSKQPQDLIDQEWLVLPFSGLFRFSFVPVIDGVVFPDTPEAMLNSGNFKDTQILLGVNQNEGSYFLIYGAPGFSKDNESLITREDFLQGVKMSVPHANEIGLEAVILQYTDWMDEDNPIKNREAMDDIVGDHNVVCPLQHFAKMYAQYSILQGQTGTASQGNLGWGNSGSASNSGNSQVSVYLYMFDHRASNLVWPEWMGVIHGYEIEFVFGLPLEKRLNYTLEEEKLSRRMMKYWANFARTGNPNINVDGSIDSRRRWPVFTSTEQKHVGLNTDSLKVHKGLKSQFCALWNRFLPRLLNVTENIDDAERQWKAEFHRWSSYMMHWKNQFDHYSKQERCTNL

Sequence of Acetylcholinesterase (Electrophorus electricus, UniProt O42275) (O42275 whole entry): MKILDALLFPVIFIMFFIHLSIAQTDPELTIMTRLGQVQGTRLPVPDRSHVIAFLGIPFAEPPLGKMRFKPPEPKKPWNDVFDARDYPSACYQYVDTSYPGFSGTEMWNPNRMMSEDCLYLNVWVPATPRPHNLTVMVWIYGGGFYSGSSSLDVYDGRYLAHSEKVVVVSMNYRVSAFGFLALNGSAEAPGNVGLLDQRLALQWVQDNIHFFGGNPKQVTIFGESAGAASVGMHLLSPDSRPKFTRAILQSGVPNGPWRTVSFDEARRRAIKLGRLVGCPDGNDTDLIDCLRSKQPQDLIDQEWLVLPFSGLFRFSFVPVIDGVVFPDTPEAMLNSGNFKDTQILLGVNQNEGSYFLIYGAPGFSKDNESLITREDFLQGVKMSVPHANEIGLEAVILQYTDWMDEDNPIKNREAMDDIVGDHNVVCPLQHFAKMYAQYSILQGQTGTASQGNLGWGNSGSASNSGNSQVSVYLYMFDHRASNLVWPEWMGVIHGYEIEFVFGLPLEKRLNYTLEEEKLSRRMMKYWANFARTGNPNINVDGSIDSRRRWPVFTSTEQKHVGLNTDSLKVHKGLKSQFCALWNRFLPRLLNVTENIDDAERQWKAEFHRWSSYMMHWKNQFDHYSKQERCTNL
Sequence of butyrylcholinesterase (BuChE) (Q9JKC1 whole entry): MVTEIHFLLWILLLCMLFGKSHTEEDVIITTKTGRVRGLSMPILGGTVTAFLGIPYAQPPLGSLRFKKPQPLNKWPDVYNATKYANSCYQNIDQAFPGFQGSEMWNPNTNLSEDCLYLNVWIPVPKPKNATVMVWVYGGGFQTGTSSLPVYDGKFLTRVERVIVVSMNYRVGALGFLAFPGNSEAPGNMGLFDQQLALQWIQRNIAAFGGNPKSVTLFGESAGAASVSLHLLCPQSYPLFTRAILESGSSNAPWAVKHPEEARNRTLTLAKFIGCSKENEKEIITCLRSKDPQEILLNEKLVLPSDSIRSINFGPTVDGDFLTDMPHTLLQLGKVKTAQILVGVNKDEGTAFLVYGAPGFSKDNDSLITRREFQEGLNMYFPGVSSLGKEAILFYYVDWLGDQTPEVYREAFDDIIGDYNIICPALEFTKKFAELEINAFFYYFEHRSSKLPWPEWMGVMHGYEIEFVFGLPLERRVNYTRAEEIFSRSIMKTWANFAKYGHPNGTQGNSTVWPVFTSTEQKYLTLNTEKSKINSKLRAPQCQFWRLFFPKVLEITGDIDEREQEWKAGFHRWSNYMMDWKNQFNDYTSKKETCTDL
Sequence of Amyloid-beta precursor protein (Homo sapiens) (P05067 whole entry, the tested form may be a part): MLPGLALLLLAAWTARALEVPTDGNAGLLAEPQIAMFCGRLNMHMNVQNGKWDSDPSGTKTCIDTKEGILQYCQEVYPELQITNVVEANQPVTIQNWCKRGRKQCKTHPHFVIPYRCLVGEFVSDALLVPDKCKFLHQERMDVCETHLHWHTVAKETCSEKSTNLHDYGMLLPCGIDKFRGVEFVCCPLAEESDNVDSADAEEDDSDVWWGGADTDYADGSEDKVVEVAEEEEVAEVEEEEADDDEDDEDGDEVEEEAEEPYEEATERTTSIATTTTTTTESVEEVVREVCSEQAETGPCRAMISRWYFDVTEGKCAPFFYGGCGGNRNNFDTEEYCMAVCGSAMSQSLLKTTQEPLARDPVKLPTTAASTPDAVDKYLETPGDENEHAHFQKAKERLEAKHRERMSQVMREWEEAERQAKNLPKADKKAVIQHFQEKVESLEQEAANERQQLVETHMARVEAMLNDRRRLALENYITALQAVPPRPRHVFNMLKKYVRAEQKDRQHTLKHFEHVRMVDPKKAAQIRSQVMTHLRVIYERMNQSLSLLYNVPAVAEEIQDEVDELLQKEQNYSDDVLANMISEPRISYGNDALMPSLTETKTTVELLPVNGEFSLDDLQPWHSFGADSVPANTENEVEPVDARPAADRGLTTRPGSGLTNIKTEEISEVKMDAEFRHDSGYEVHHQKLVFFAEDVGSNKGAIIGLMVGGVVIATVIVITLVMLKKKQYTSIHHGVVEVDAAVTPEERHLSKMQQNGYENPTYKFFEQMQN
Sequence of Acetylcholinesterase (Homo sapiens, UniProt P22303) (P22303 whole entry): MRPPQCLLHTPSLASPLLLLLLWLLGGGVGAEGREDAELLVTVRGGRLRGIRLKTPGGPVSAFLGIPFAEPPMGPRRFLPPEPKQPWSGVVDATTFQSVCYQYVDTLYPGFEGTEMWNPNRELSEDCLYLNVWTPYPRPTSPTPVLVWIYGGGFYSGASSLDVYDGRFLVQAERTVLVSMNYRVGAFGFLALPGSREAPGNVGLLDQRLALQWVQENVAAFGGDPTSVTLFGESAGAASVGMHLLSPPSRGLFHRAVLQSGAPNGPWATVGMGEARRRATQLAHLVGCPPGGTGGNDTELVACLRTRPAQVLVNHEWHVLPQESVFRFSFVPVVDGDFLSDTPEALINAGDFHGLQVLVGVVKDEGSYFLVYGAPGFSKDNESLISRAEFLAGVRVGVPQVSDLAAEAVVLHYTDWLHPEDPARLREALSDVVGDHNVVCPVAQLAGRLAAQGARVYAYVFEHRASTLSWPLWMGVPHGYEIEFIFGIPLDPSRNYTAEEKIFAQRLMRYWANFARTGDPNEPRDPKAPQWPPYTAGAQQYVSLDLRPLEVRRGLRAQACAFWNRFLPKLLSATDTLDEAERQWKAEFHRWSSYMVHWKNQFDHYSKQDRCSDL

SMILES | inhibition [1] [%] | pIC50 (Acetylcholinesterase [2]) | pIC50 (Acetylcholinesterase [3]) | pIC50 (Acetylcholinesterase [4]) | inhibition at 0.25 h, 50 µM [5] [%] | Activity [6] [equiv] | inhibition [7] [%] | inhibition at 10 µM [8] [%] | inhibition at 10 µM [9] [%] | Activity (PC-12 [10]) | Activity (PC-12 [11]) | Activity [12] | Activity [13] | Activity [14] | Activity [15] | Activity [16] [molar ratio] | Papp at 18 h, 100 ug/ml [17] [×10⁻⁶ cm/s] | inhibition [18] [%] | inhibition [19] [%]
COc1cc(/C=C/C(=O)CC(=O)/C=C/c2ccc(O)c(OC)c2)ccc1O | 67.2 |  |  |  |  |  |  |  |  |  |  |  |  |  |  |  |  |  | 
COc1cc2c(cc1OC)C(=O)/C(=C/c1ccc(CN(C)C)c(O)c1)O2 | 32.2 | 4.59 | 5.05 | 4.61 | < 5 | 2.02 | 46.9 | 20.2 | 2.23 |  |  |  |  |  |  |  |  |  | 
COc1cc2c(cc1OC)C(=O)/C(=C/c1ccc(CN3CCOCC3)c(O)c1)O2 | 28.5 | 5.06 | 4.69 | 5.22 | < 5 | 1.58 | 31.5 | 12.1 | 3.3 |  |  |  |  |  |  |  |  |  | 
COc1cc2c(cc1OC)C(=O)/C(=C/c1ccc(CN3CCCC3)c(O)c1)O2 | 38.8 | 6.61 | 5.57 | 5.88 | 19 | 1.79 | 57.2 | 62.9 | 37.9 |  |  |  |  |  |  |  |  |  | 
COc1cc2c(cc1OC)C(=O)/C(=C/c1ccc(O)cc1)O2 | 26.7 | 3.53 | 4.19 |  | < 5 | 1.52 | 15.7 | 12.1 | 36.1 |  |  |  |  |  |  |  |  |  | 
CCN1CCN(Cc2ccc(/C=C3\Oc4cc(OC)c(OC)cc4C3=O)cc2O)CC1 | 39.7 | 4.62 | 4.93 | 4.49 | < 5 | 1.61 | 49.1 | 15.1 | 2.6 |  |  |  |  |  |  |  |  |  | 
CCN(CC)Cc1ccc(/C=C2\Oc3cc(OC)c(OC)cc3C2=O)cc1O | 23.6 | 6.97 | 6.31 | 6.15 | < 5 | 2.06 | 47.5 | 22.7 | 7.2 |  |  |  |  |  |  |  |  |  | 
Cc1c(C)c2c(c(C)c1O)CCC(C)(C(=O)O)O2 (configuration not stated) |  |  |  |  |  |  |  |  |  | Active | Active |  |  |  |  |  |  |  | 
CCN(Cc1ccc(/C=C2\Oc3cc(OC)c(OC)cc3C2=O)cc1O)Cc1ccccc1N(C)C | 72.6 | 5.14 | 5.19 | 5.17 | 19.6 | 1.56 | 78.3 | 15.3 | 38.1 |  |  | Active | Active | Active | Active | 0.98 | 12.2 |  | 
CCN(Cc1ccccc1)Cc1ccc(/C=C2\Oc3cc(OC)c(OC)cc3C2=O)cc1O | 60.9 | 4.03 | 4.45 |  | < 5 | 1.17 | 72.5 | 17 | 23.9 |  |  |  |  |  |  |  |  |  | 
COc1cc2c(cc1OC)C(=O)/C(=C/c1ccc(CN(C)Cc3ccccc3)c(O)c1)O2 | 70.1 | 4.70 | 5.04 | 4.58 | < 5 | 1.62 | 51.5 | 19.4 | 17.8 |  |  |  |  |  |  |  |  |  | 
COc1cc2c(cc1OC)C(=O)/C(=C/c1ccc(CN3CCN(Cc4ccccc4)CC3)c(O)c1)O2 | 38.7 |  |  |  | < 5 | 1.01 | 41.8 | 15.3 | 6.9 |  |  |  |  |  |  |  |  | < 5 | < 5
COc1cc2c(cc1OC)C(=O)/C(=C/c1ccc(CN3CCN(C)CC3)c(O)c1)O2 | 35.1 | 4.79 | 4.92 | 4.85 | < 5 | 1.78 | 38.6 | 9.2 | 1 |  |  |  |  |  |  |  |  |  | 
COc1ccccc1CN(C)Cc1ccc(/C=C2\Oc3cc(OC)c(OC)cc3C2=O)cc1O | 55.8 | 4.13 | 4.54 |  | < 5 | 1.35 | 55.1 | 16.3 | 8.4 |  |  |  |  |  |  |  |  |  | 
CCN(Cc1ccc(/C=C2\Oc3cc(OC)c(OC)cc3C2=O)cc1O)Cc1ccccc1OC | 71.2 | 4.35 | 4.43 |  | 5.21 | 1.47 | 74.9 | 9.7 | 26.4 |  |  |  |  |  |  |  |  |  | 
CCN(Cc1ccc(N(C)C)cc1)Cc1ccc(/C=C2\Oc3cc(OC)c(OC)cc3C2=O)cc1O | 68.5 | 3.54 | 3.37 |  | < 5 | 2.02 | 80.5 | 6.8 | 19.2 |  |  |  |  |  |  |  |  |  | 
COc1cc2c(cc1OC)C(=O)/C(=C/c1cccc(O)c1)O2 | 28.9 | 3.88 | 4.44 |  | < 5 | 1.51 | 33.6 | 17.2 | 37 |  |  |  |  |  |  |  |  |  | 
